# Test results: PMC2744866 (Journal of medicinal chemistry, 2009)
# Entries after “also recorded” stand apart in the source; their conditions may differ.
# How the values were obtained:
# [1] = molecular target: T1, human recombinant BHMT (Homo sapiens, UniProt Q93088); assay: BHMT inhibition assay; assay type: biochemical; conditions: for inhibition of BHMT, in words: qualitative statement; for % Inhibition (average of triplicates): 20 μM inhibitor, 0.25 mM betaine, 0.1 mM DL-homocysteine, pH 7.5, 37 °C
# T1 sequence (Q93088 1-406): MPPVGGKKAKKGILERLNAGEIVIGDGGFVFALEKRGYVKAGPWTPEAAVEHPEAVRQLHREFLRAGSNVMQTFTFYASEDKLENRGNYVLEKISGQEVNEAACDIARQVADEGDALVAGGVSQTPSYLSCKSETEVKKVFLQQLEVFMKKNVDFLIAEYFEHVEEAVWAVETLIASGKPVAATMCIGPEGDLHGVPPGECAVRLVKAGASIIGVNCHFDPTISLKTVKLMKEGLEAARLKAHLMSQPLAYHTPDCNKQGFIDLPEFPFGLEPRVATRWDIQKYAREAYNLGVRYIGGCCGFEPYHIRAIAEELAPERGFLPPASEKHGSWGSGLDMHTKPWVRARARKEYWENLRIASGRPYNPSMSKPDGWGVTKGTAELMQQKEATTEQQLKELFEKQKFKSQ
# [2] = 1H and 13C NMR pH titration; assay type: physicochemical; conditions: NMR titration over broad pH range
# [3] = molecular target: T1, human recombinant BHMT; assay: Isothermal titration calorimetry of inhibitor binding to BHMT; conditions: ITC
# [4] = pH 7.5, read-out: % Inhibition (average of triplicates)
SMILES,"inhibition of BHMT, in words [1]",further results
"NC(CCSSCCCC(=O)O)C(=O)O (racemic) [Compound 5, (RS)-2-Amino-4-[(3-carboxypropyl)disulfanyl]butanoic acid]",very weak inhibitor,
"NC(CCSCSCCC(=O)O)C(=O)O (racemic) [Compound 6, (RS)-2-Amino-4-[(2-carboxyethylthio)methylthio]butanoic Acid]",moderate inhibitory potency,
"NC(CCCSCCCC(=O)O)C(=O)O (racemic) [Compound 7, (RS)-2-Amino-5-(3-carboxypropylthio)pentanoic Acid]",low inhibitory potency,
"NC(CCOCCCCC(=O)O)C(=O)O (racemic) [Compound 8, (RS)-5-(3-Amino-3-carboxypropoxy)pentanoic Acid]",almost inactive,
"NC(CC[Se]CCCCC(=O)O)C(=O)O (racemic) [Compound 9, (RS)-5-(3-Amino-3-carboxypropylselanyl)pentanoic Acid]",strongly inhibited,fold weaker than compound 1 ([1]; compared with reference inhibitor 1): 5 fold
"NC(CCCCCCCC(=O)O)C(=O)O (racemic) [Compound 10, (RS)-2-Aminodecanedioic Acid]",almost inactive,
"C[N+](C)(CSCCC(N)C(=O)O)CC(=O)[O-] (racemic) [Compound 11, (RS)-2-{[(3-Amino-3-carboxypropylthio)methyl]dimethylammonium}acetate]",,% Inhibition (average of triplicates) [1]: completely inactive
"C[N+](C)(CCSCCC(N)C(=O)O)CC(=O)[O-] (racemic) [Compound 12, (RS)-2-{[2-(3-Amino-3-carboxypropylthio)ethyl]dimethylammonium}acetate]",,% Inhibition (average of triplicates) [1]: very weak inhibition
"CN(CCSCCC(N)C(=O)O)CC(=O)O (racemic) [Compound 13, (RS)-2-Amino-4-{2-[(carboxymethyl)(methyl)amino]ethylthio}-butanoic Acid]","promising, but still moderate, inhibition",pK2 of secondary/tertiary amino group [2]: ~9.5
"NC(CCSCCNCC(=O)O)C(=O)O (racemic) [Compound 16, (RS)-2-Amino-4-[2-(carboxymethylamino)ethylthio]butanoic Acid]",,pK2 of secondary/tertiary amino group [2]: ~9.5
"C[N+](C)(CCCSCCC(N)C(=O)O)CC(=O)[O-] (racemic) [Compound 18, (RS)-2-{[3-(3-Amino-3-carboxypropylthio)propyl]dimethylammonio}acetate]",did not inhibit BHMT at all,
"CN(CCCSCCC(N)C(=O)O)CC(=O)O (racemic) [Compound 19, (RS)-2-Amino-4-{3-[(carboxymethyl)(methyl)amino]propylthio}butanoic Acid]",only a modest inhibitor,
C[C@@H](CCSCC[C@@H](N)C(=O)O)CC(=O)O (racemic) [Compound 20],highly potent inhibitors; also recorded: equipotent,
CC(C)(CCSCCC(N)C(=O)O)CC(=O)O (racemic) [Compound 21],highly potent inhibitors,"enthalpic contribution ΔH ([3]; 25 °C, pH 7.5): -29.5 ± 1.2 kcal/mol; entropic contribution −TΔS ([3]; 25 °C, pH 7.5): 19.6 ± 1.3 kcal/mol; association constant Ka ([3]; 25 °C, pH 7.5, S-enantiomer): (2.0 ± 0.6) × 10^7 M^−1; stoichiometry of the main interaction ([3]; inhibitor per BHMT monomer): 1.1 ± 0.1"
"NC(CCSCCCCC(=O)O)C(=O)O (stereo not shown) [Compound 1, reference compound]",,"inhibition at 1 µM [1, 4]: 97.6%; inhibition at 20 µM [1, 4]: 100%"
